This is an account of results in patent publication US8748436B2, “Carboxylic acid derivatives having a 2,5,7-substituted oxazolopyrimidine ring” (Sanofi, priority 2010, dated 2014).

In one assay the target is T1, human Edg-1 receptor (Homo sapiens, UniProt P21453).
T1 construct: FLAG (N); expressed in transfected cells; membrane preparation
T1 sequence (P21453 whole entry): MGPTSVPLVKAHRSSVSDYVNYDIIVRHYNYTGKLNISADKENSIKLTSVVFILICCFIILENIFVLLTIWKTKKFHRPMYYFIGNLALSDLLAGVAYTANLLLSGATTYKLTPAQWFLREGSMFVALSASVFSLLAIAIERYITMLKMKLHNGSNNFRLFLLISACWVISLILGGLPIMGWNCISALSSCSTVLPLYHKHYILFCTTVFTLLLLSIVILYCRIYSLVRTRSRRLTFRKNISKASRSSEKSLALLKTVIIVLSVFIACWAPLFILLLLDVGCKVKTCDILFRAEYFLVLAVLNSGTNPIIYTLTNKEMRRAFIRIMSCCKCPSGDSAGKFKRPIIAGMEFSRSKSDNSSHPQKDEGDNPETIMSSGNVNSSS
Kind of assay: GTP-γ-S assay using human Edg-1 receptors (scintillation proximity assay, CHO Flp-In cell membrane preparation). It is filed as biochemical. The following applies: test compound at 10 μM; high control 10 μM S1P regarded as 100% activation; [35S]GTP-γ-S binding, triplicate. A digest of the protocol: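 Scintillation proximity GTP-γ-S binding measured receptor activation. Membranes came from a stably transfected CHO Flp-In line constitutively overexpressing N-terminally FLAG-tagged human Edg-1. Membranes were prepared by hypotonic lysis (5 mM HEPES, 1 mM EDTA, protease inhibitors) at 4 °C and Dounce homogenisation.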
A general note: Scintillation proximity formats need no separation of bound from free tracer.
Consider `CCCOc1nc(Oc2ccc(F)cc2)nc2oc(-c3cc(C)c(OCC(=O)O)c(C)c3)nc12` [Example 35, {4-[5-(4-fiuorophenoxy)-7-propoxy-oxazolo[5,4-d]pyrimidin-2-yl]-2,6-dimethylphenoxy}-acetic acid], for which the “% Activation (Edg-1 receptor activation in percent of the activation by 10 μM S1P)” value is reported as 79%.

The assay is the same for the next values; noted with them: test compound at 10 μM; high control 10 μM S1P regarded as 100% activation; [35S]GTP-γ-S binding, triplicate; read-out: % Activation (Edg-1 receptor activation in percent of the activation by 10 μM S1P).
Turning to `CCCOc1nc(Oc2cccc(C(F)(F)F)c2Cl)nc2oc(-c3cc(C)c(OCC(=O)O)c(C)c3)nc12` [Example 79, {4-[5-(2-chloro-3-trifluoromethylphenoxy)-7-propoxy-oxazolo[5,4-d]pyrimidin-2-yl]-2,6-dimethylphenoxy}-acetic acid], the activation at 10 µM came to 82%.

Regarding `CCCOc1nc(Oc2ccc(Cl)c(F)c2)nc2oc(-c3cc(C)c(OCC(=O)O)c(C)c3)nc12` [Example 64, {4-[5-(4-chloro-3-fluorophenoxy)-7-propoxy-oxazolo[5,4-d]pyrimidin-2-yl]-2,6-dimethylphenoxy}-acetic acid], the activation at 10 µM is 65%. Take `CCCOc1nc(Oc2cccc(SC(F)(F)F)c2)nc2oc(-c3cc(C)c(OCC(=O)O)c(C)c3)nc12` [Example 76, {2,6-dimethyl-4-[7-propoxy-5-(3-trifluoromethylsulfanyl-phenoxy)-oxazolo[5,4-d]pyrimidin-2-yl]-phenoxy}-acetic acid]: the activation at 10 µM is 81%. For the compound `CCCOc1nc(OCC)nc2oc(-c3cc(C)c(OCC(=O)O)c(C)c3)nc12` [Example 17, [4-(5-ethoxy-7-propoxy-oxazolo[5,4-d]pyrimidin-2-yl)-2,6-dimethyl-phenoxy]-acetic acid], the activation at 10 µM is 70%.

On to `CCCOc1nc(Oc2cccc(C(F)(F)F)c2)nc2oc(-c3cc(C)c(OCC(=O)O)c(C)c3)nc12` [Example 67, {2,6-dimethyl-4-[7-propoxy-5-(3-trifluoromethylphenoxy)-oxazolo[5,4-d]pyrimidin-2-yl]-phenoxy}-acetic acid], for which the activation at 10 µM turned out to be 82%. As to `CCCOc1nc(Oc2ccccc2)nc2oc(-c3cc(C)c(OCC(=O)O)c(C)c3)nc12` [Example 9, [2,6-dimethyl-4-(5-phenoxy-7-propoxy-oxazolo[5,4-d]pyrimidin-2-yl)-phenoxy]-acetic acid], the activation at 10 µM came to 84%. For the compound `CCCOc1nc(Oc2cc(F)cc(F)c2)nc2oc(-c3cc(C)c(OCC(=O)O)c(C)c3)nc12` [Example 50, {4-[5-(3,5-difluorophenoxy)-7-propoxy-oxazolo[5,4-d]pyrimidin-2-yl]-2,6-dimethyl-phenoxy}-acetic acid], the activation at 10 µM was 86%.
